# In patent US11179383B2 (Gilead Sciences, Inc., priority 2018, dated 2021):
# Target: T1, α4β7 integrin (Homo sapiens, UniProt P13612+P26010)
# T1 construct: monitoring the capture of α4β7 integrin expressing cells on a recombinant MadCAM-1 extracellular domain-coated plate; endogenous in cells; host or cells: RPMI8866 cells
# T1 sequence (P13612 34-1032): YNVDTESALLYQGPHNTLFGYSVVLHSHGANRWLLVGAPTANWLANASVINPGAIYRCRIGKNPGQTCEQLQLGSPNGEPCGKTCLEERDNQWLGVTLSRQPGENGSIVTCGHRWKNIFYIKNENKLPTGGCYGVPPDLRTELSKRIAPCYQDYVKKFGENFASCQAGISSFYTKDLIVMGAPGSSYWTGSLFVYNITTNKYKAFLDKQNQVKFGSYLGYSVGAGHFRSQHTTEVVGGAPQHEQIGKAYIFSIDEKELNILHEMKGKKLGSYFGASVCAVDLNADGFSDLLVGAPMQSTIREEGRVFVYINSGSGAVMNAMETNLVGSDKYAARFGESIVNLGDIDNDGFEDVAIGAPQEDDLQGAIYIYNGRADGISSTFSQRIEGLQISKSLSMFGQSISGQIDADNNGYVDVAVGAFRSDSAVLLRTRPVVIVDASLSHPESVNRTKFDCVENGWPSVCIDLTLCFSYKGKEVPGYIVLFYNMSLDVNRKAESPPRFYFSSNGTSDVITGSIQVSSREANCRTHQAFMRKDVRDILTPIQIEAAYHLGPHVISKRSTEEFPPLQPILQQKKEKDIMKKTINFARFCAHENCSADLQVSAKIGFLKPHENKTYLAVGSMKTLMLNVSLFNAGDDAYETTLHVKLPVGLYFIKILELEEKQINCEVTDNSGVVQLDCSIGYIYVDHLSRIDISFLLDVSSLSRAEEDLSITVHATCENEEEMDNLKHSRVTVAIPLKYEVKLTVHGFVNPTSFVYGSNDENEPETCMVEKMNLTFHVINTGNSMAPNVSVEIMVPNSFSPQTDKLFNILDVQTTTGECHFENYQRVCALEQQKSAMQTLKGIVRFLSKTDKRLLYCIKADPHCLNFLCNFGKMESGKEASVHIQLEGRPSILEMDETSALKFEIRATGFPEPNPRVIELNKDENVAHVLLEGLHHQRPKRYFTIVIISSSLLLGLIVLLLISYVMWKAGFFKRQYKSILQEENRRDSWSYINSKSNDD
# T1 sequence (P26010 20-798): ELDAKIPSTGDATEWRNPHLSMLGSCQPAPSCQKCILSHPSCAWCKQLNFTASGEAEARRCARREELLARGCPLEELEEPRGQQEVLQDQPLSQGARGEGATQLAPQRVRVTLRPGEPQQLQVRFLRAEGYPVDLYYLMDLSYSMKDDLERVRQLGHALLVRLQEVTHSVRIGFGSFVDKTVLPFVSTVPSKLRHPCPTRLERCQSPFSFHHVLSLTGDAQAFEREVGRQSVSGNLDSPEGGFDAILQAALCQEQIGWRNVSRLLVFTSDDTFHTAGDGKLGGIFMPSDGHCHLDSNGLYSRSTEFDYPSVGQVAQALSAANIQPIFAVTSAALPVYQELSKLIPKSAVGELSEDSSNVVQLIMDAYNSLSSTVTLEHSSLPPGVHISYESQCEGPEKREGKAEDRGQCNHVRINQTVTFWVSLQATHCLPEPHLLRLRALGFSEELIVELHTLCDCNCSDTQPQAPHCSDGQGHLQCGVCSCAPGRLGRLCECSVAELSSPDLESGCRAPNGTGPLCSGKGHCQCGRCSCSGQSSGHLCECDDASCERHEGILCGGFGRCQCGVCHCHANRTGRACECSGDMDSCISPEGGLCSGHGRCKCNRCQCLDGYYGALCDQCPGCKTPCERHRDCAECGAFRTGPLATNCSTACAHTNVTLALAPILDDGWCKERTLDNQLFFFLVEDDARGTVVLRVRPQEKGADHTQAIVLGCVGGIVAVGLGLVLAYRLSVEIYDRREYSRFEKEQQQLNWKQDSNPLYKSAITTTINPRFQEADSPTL
# Test: α4β7 Integrin Cell Capture Assay
# Type: cell-based
# Settings: EC50 α4β7 (nM), capture of α4β7 integrin expressing RPMI8866 cells on recombinant MadCAM-1 extracellular domain-coated plate; DMEM+0.5% FBS+0.5 mM MnCl2
# In short: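 RPMI8866 cells in DMEM + 0.5% FBS + 0.5 mM MnCl2 preincubated with compound 1 h at 37 °C, then allowed to bind 30 min at 37 °C to plates coated with MAdCAM-1 extracellular domain (1.0 μg/mL). Cells fixed with glutaraldehyde, Hoechst-stained, imaged and bound cells counted; EC50 from cell count versus concentration.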
row,Structure (SMILES),EC50
1,"CN(C)C(=O)Oc1ccc(C[C@H](NC(=O)c2c(Cl)cccc2Cl)C(=O)O)c2ncccc12 [Example 89, (S)-2-(2,6-dichlorobenzamido)-3-(5-((dimethylcarbamoyl)oxy)quinolin-8-yl)propanoic acid]",173 nM

# Same assay, conditions: capture of α4β7 integrin expressing RPMI8866 cells on recombinant MadCAM-1 extracellular domain-coated plate; DMEM+0.5% FBS+0.5 mM MnCl2; read-out: EC50 α4β7
row,EC50,Structure (SMILES)
1,17 nM,"Cn1cc(-c2ccc(C[C@H](NC(=O)c3c(F)cccc3F)C(=O)O)c3ncccc23)c(=O)n(C)c1=O [Example 80, (S)-2-(2,6-difluorobenzamido)-3-(5-(1,3-dimethyl-2,4-dioxo-1,2,3,4-tetrahydropyrimidin-5-yl)quinolin-8-yl)propanoic acid]"
2,109 nM,"O=C(N[C@@H](Cc1ccc(-c2cc(F)c(F)cc2OC2CC2)c2cccnc12)C(=O)O)c1c(F)cccc1F [Example 83, (S)-3-(5-(2-cyclopropoxy-4,5-difluorophenyl)quinolin-8-yl)-2-(2,6-difluorobenzamido)propanoic acid]"
3,10.9 nM,"Cn1c(=O)c(-c2ccc(C[C@H](NC(=O)c3c(F)cccc3F)C(=O)O)c3ncccc23)cc2ccccc21 [Example 84, (S)-2-(2,6-difluorobenzamido)-3-(1-methyl-2-oxo-1,2-dihydro-[3,5′-biquinolin]-8′-yl)propanoic acid]"
4,4280 nM,"O=C(N[C@@H](Cc1ccc(-c2ccc(F)cc2Cl)c2c(Cl)ccnc12)C(=O)O)c1c(F)cccc1F [Example 90, (S)-3-(4-chloro-5-(2-chloro-4-fluorophenyl)quinolin-8-yl)-2-(2,6-difluorobenzamido)propanoic acid]"
5,686 nM,"O=C(N[C@@H](Cc1ccc(-c2ccc(F)cc2Cl)c2c(-c3ccc(F)cc3Cl)ccnc12)C(=O)O)c1c(F)cccc1F [Example 91, (S)-3-(4,5-bis(2-chloro-4-fluorophenyl)quinolin-8-yl)-2-(2,6-difluorobenzamido)propanoic acid]"
6,89.4 nM,"COc1cc(F)c(F)cc1-c1ccc(C[C@H](NC(=O)c2c(F)cccc2F)C(=O)O)c2nccc(Cl)c12 [Example 92, (S)-3-(4-chloro-5-(4,5-difluoro-2-methoxyphenyl)quinolin-8-yl)-2-(2,6-difluorobenzamido)propanoic acid]"
7,26.8 nM,"CCOCc1cc(OC)c(-c2ccc(C[C@H](NC(=O)c3c(F)cccc3F)C(=O)O)c3nccc(Cl)c23)c(OC)c1 [Example 93, (S)-3-(4-chloro-5-(4-(ethoxymethyl)-2,6-dimethoxyphenyl)quinolin-8-yl)-2-(2,6-difluorobenzamido)propanoic acid]"
8,111 nM,"COc1cc(F)c(F)cc1-c1ccc(C[C@H](NC(=O)c2c(Cl)cccc2Cl)C(=O)O)c2nccc(Cl)c12 [Example 94, (S)-3-(4-chloro-5-(4,5-difluoro-2-methoxyphenyl)quinolin-8-yl)-2-(2,6-dichlorobenzamido)propanoic acid]"
9,97.2 nM,"COc1cc(F)c(F)cc1-c1ccc(C[C@H](NC(=O)c2c(Cl)cccc2Cl)C(=O)O)c2nccc(C)c12 [Example 97, (S)-2-(2,6-dichlorobenzamido)-3-(5-(4,5-difluoro-2-methoxyphenyl)-4-methylquinolin-8-yl)propanoic acid]"
10,22.2 nM,"Cc1ccnc2c(C[C@H](NC(=O)c3c(Cl)cccc3Cl)C(=O)O)ccc(-c3cc4ccccc4n(C)c3=O)c12 [Example 100, (S)-2-(2,6-dichlorobenzamido)-3-(1,4′-dimethyl-2-oxo-1,2-dihydro-[3,5′-biquinolin]-8′-yl)propanoic acid]"
11,1.7 nM,"COc1cccc(OC)c1-c1ccc(C[C@H](NC(=O)c2c(F)cc(NS(=O)(=O)c3ccc(-c4ccnc(F)c4)cc3)cc2F)C(=O)O)c2ncccc12 [Example 101, (S)-2-(2,6-difluoro-4-((4-(2-fluoropyridin-4-yl)phenyl)sulfonamido)benzamido)-3-(5-(2,6-dimethoxyphenyl)quinolin-8-yl)propanoic acid]"
12,1 nM,"CCOCc1cc(OC)c(-c2ccc(C[C@H](NC(=O)c3c(F)cc(NS(=O)(=O)c4ccc(-c5ccnc(F)c5)cc4)cc3F)C(=O)O)c3ncccc23)c(OC)c1 [Example 102, (S)-2-(2,6-difluoro-4-((4-(2-fluoropyridin-4-yl)phenyl)sulfonamido)benzamido)-3-(5-(4-(ethoxymethyl)-2,6-dimethoxyphenyl)quinolin-8-yl)propanoic acid]"
13,1.9 nM,"COc1cccc(OC)c1-c1ccc(C[C@H](NC(=O)c2c(F)cc(NS(=O)(=O)c3ccc(-c4ccnc(F)c4)cc3)cc2F)C(=O)O)c2ccccc12 [Example 103, (S)-2-(2,6-difluoro-4-((4-(2-fluoropyridin-4-yl)phenyl)sulfonamido)benzamido)-3-(4-(2,6-dimethoxyphenyl)naphthalen-1-yl)propanoic acid]"
14,0.8 nM,"COc1cccc(OC)c1-c1ccc(C[C@H](NC(=O)c2c(F)cc(NS(=O)(=O)c3ccc(-n4cncn4)cc3)cc2F)C(=O)O)c2ccccc12 [Example 104, (S)-2-(4-((4-(1H-1,2,4-triazol-1-yl)phenyl)sulfonamido)-2,6-difluorobenzamido)-3-(4-(2,6-dimethoxyphenyl)naphthalen-1-yl)propanoic acid]"
15,0.8 nM,"CCOCc1cc(OC)c(-c2ccc(C[C@H](NC(=O)c3c(F)cc(NS(=O)(=O)c4ccc(-c5ccnc(F)c5)cc4)cc3F)C(=O)O)c3ccccc23)c(OC)c1 [Example 105, (S)-2-(2,6-difluoro-4-((4-(2-fluoropyridin-4-yl)phenyl)sulfonamido)benzamido)-3-(4-(4-(ethoxymethyl)-2,6-dimethoxyphenyl)naphthalen-1-yl)propanoic acid]"
16,196 nM,"O=C(N[C@@H](Cc1ccc(-c2c(Cl)cc(F)cc2Cl)c2ccccc12)C(=O)O)c1c(F)cccc1F [Example 106, (S)-3-(4-(2,6-dichloro-4-fluorophenyl)naphthalen-1-yl)-2-(2,6-difluorobenzamido)propanoic acid]"
17,139 nM,"O=C(N[C@@H](Cc1ccc(-c2c(Cl)cc(F)cc2Cl)c2ccccc12)C(=O)O)c1c(Cl)cccc1Cl [Example 107, (S)-3-(4-(2,6-dichloro-4-fluorophenyl)naphthalen-1-yl)-2-(2,6-dichlorobenzamido)propanoic acid]"
18,3.4 nM,"Cn1c(=O)c(-c2ccc(C[C@H](NC(=O)c3c(Cl)cccc3Cl)C(=O)O)c3ccccc23)cc2ccccc21 [Example 108, (S)-2-(2,6-dichlorobenzamido)-3-(4-(1-methyl-2-oxo-1,2-dihydroquinolin-3-yl)naphthalen-1-yl)propanoic acid]"
19,76.6 nM,"O=C(N[C@@H](Cc1ccc(-c2cccc3c2OCCC3)c2ccccc12)C(=O)O)c1c(Cl)cccc1Cl [Example 111, (S)-3-(4-(chroman-8-yl)naphthalen-1-yl)-2-(2,6-dichlorobenzamido) propanoic acid]"
20,53.3 nM,"O=C(N[C@@H](Cc1ccc(-c2cccc3c2OCCC3)c2ccccc12)C(=O)O)c1c(F)cccc1F [Example 112, (S)-3-(4-(chroman-8-yl)naphthalen-1-yl)-2-(2,6-difluorobenzamido) propanoic acid]"
